The text below walks through data of PMC10669220, “In Vitro α-Glucosidase and α-Amylase Inhibition, Cytotoxicity and Free Radical Scavenging Profiling of the 6-Halogeno and Mixed 6,8-Dihalogenated 2-Aryl-4-methyl-1,2-dihydroquinazoline 3-Oxides” (Antioxidants, 2023).

Data set [1] deals with lung cancer (A549) cell line. Briefly: MTT cytotoxicity assay, A549. The note with it: for Cell viability percentage, A549: Table S3; for IC50: Homo sapiens, A549, read-out: IC50 A549. On the technique in general: Tetrazolium dyes change colour on reduction, which living cells bring about.
The nature of data set [2]: DPPH radical scavenging assay. To be noted: mean ± SD; 45 min in the dark; 512 nm. In outline:
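Compounds (0–50 µM, in DMSO) were mixed with 0.20 mM DPPH in methanol and kept in the dark for 45 min, with absorbance read at 512 nm. IC50 values were obtained by nonlinear regression of triplicate averaged readings.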
For orientation: DPPH is a stable violet radical that fades when it is reduced.

Data set [3] deals with breast cancer (MCF-7) cell line. Briefly: MTT cytotoxicity assay, MCF-7. The note with it: for Cell viability percentage, MCF-7: Table S2; for IC50: Homo sapiens, MCF7, read-out: IC50 MCF-7.
Protocol: Cells were cultured in sterile Dulbecco’s Minimal Essential Medium (DMEM, Gibco) supplemented with 10% fetal bovine serum (FBS) and 1% penicillin-streptomycin solution. […] Cell counting was carried out using a handheld automated cell counter (Scapter 3.0™, Merck, Burlington, MA, USA) and seeded (1 × 10^4 cells/well) into a 96-well plate. After 24 h, the cells were treated with different concentrations (1, 5, 10, 25 and 50 µM) of the test compounds and reference standards prepared in DMEM. The MTT solution (20 μL) prepared in PBS (5 mg/mL) was added to all the wells, and the plates were incubated for 4 h, followed by 1 h incubation with 100 µL of dimethyl sulfoxide (DMSO) to dissolve the formazan crystals. Untreated cells and 5% DMSO were included in the experiment as negative controls. All experiments were performed in triplicate. The plates were read at 570 nm at a reference wavelength of 630 nm using an ELISA plate reader (Varioskan Flash, ThermoFisher Scientific, Vantaa, Finland). The percentage of cell viability was calculated using the following formula, Cell viability %=At/Ab×100 where At represents the absorbance value of test compound and Ab the absorbance value of the blank. […] The data were expressed as means ± SD.
A further data set addresses T1, human α-amylase (Homo sapiens, UniProt P04746).
T1 construct: purchased Abcam ab283391
T1 sequence (P04746 16-511): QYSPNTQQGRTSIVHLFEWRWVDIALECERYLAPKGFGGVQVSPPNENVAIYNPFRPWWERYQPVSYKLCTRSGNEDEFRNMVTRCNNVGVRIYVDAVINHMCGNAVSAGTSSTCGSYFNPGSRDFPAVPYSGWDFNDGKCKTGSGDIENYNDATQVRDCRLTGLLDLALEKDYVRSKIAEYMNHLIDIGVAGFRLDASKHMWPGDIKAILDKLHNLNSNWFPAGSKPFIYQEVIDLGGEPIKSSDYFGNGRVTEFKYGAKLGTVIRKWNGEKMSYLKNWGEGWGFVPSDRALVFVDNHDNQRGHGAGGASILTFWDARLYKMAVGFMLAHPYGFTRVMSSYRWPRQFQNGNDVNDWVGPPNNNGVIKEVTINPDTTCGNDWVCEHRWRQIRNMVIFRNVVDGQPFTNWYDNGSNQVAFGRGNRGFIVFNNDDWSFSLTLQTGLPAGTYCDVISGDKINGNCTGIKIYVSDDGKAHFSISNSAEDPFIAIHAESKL
Briefly: α-amylase inhibitor screening kit assay. Format: biochemical. The note with it: mean ± SD, triplicate; tested at 1, 5, 10, 25, 50 µM. How it is done: The α-amylase assay was performed in triplicate, using a 96-well plate following the procedure recommended by the manufacturer as outlined in the α-amylase inhibitor Screening Kit (Catalogue No. ab283391; Abcam). […] The average values obtained from the absorbance readings were used to determine the IC50 and standard deviation values in GraphPad prism from nonlinear regression dose–response curves.

The target in data set [4] is T2, α-Glucosidase type 1 from baker's yeast (Saccharomyces cerevisiae, UniProt P53341).
T2 construct: purchased Sigma Aldrich (Pty) Ltd. G5003
The data set is described as follows: biochemical. To be noted: IC50 α-Glucosidase, mean ± SD, triplicate; tested at 1, 5, 10, 25, 50 µM.

For data set [5], the target named is superoxide dismutase (SOD). The data set is described as follows: Superoxide dismutase (SOD) inhibitory assay (SOD assay kit-WST). To be noted: duplicate; 1-50 µM; 25 °C, 30 min; read-out: IC50 SOD inhibition. Format: biochemical. How it is done: The antioxidant activity of the compounds 3a, 3c, 3f, 3i, 3l, 3n and 3p against superoxide radicals was assessed via enzymatic assay in vitro using the SOD assay kit-WST according to the manufacturer’s instructions (Sigma-Aldrich®). The reaction mixtures in the SOD kit were combined with 20 μL of working solution of the samples in a 96-well plate. Plates were gently shaken and then incubated at 25 °C for 30 min. The reference positive control, diphenyleneiodonium (DPI), and the compounds were tested at 01, 5, 10, 25 and 50 µM in duplicates. The inhibition activity of SOD on the reaction of […] generated the superoxide with a tetrazolium salt, which was then determined by measuring the absorbance of the mixtures at a wavelength of 450 nm using an Elisa plate reader (Varioskan Flash, ThermoFisher Scientific, Vantaa, Finland). The SOD activity values obtained used to calculate the percentage of inhibition. % SOD activity=ODx− ODy/ODx ×100% where ODx is the absorbance of the blank (untreated SOD) and ODy is the absorbance of the sample (treated SOD). All tests were performed in duplicate.

Data set [6] is described as follows: NO free radical scavenging assay (sodium nitroprusside/Griess). The note with it: mean ± SD; sodium nitroprusside, Griess reagent, 550 nm. In outline: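 Test compound incubated with 10 mM sodium nitroprusside (stock) in phosphate buffer for 2.5 h at 25 °C, then Griess reagent added for 30 min. Triplicate absorbance means used for IC50 by nonlinear dose–response regression.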
In general terms: Griess reagent forms a coloured azo dye with nitrite.

Data set [7] deals with human embryonic kidney (HEK293-T) cell line. The data set is described as follows: MTT cytotoxicity assay, HEK293-T. The note with it: Homo sapiens, HEK-293T, read-out: IC50 Hek293-T.
Data set [8] is described as follows: MTT cytotoxicity assay, HEK293-T. The note with it: human, HEK293-T cells.
The test system of data set [9] is NO generated from nitric oxide synthase (NOS). Briefly: Inhibitory activity against NO generated from NOS (EnzyChrom kit). The class given is biochemical. The note with it: mean ± SD, 1-50 µM. How it is done:
(§1) A nitric oxide synthase (NOS) assay was performed following the procedure recommended by the manufacturer as outlined in the screening kit (Catalogue No. EINO-100; EnzyChrom). Various concentrations (1, 5, 10, 25 and 50 µM) of the compounds 3a, 3c, 3f, 3i, 3l, 3n and 3p and the reference standard, ascorbic acid, were prepared. The enzyme solution (12.5 U/mL NOS, 10 µL), assay buffer (25 µL) and test samples (5 µL) were incubated at room temperature for 15 min. After pre-incubation, 10 µL of reaction mix was added and incubated at 37 °C for 60 min. A 200 µL quantity of NO detection reagent was added, the detection reaction was run at 37 °C for 60 min, and absorbance was determined at a wavelength of 540 nm using an Elisa plate reader (Varioskan Flash, ThermoFisher Scientific, Vantaa, Finland). The average of three readings was used to calculate the NOS percentage inhibition using the following formula: % Inhibition=1−ΔOD Test Compd/ΔOD No Inhibitor ×100%
The IC50 values and standard deviation values were determined from nonlinear regression dose–response curve and compared with the results in GraphPad prism.

The test system of data set [10] is NOS of semipurified enzyme preparation or activated macrophage cytosol. The note with it: 30 min. incubation with 10 μM DPI at 37 °C; cited from earlier work.
Data set [11] has as its system nitric oxide synthase (NOS). Briefly: Kinetic study on inhibitory activity of NOS. The note with it: seven concentrations 1-10.0 μM; Figure 3; read-out: IC50 NOS inhibition (kinetic study). Format: biochemical. Here is the method:
as §1, with “2.5, 4.0, 5.5, 7.0, 8.5” for “5, 10, 25”, “10.0” for “50”, “3i” for “3a, 3c, 3f, 3i, 3l, 3n and 3p”, “DPI,” for “ascorbic acid,”, “uL),” for “µL),”, “formula in Section 2.6.3” for “following formula: % Inhibition=1−ΔOD Test Compd/ΔOD No Inhibitor ×100%”

The term melting point denotes the temperature of the solid-liquid transition. What is called IC50 is the concentration at which inhibition is half-maximal. The term viability denotes the share of living cells, or the viability signal relative to a control. A lower viability goes with more harm to the cells.

T2 sequence (P53341 whole entry): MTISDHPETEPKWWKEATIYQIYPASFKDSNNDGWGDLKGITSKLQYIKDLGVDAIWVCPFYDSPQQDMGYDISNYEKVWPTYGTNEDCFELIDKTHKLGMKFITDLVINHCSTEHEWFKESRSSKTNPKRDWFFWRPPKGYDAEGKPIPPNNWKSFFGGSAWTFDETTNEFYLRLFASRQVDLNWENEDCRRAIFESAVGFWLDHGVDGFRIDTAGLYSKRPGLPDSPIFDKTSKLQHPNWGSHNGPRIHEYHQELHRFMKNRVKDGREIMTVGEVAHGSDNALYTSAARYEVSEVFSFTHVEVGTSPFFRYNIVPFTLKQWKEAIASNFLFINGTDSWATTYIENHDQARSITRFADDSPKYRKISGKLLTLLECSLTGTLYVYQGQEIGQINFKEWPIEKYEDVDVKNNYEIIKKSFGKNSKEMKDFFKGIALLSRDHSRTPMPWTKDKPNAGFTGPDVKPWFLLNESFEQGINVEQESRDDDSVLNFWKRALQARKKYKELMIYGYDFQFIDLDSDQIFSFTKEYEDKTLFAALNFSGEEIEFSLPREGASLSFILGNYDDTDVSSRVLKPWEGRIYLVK

In turn, `CC1=[N+]([O-])C(c2ccc(F)cc2)Nc2c(Br)cc(I)cc21` (centres unmarked) [Compound 3n] yielded a melting point of 125 to 127 °C. The “Cell viability percentage, A549” value in data set [1] (Conc. 1 (µM per method)) was 79,9753%. The “Cell viability percentage, A549” value in [1] (Conc. 5 (µM per method)) is given as 73,2703%. For the same compound, the “Cell viability percentage, A549” value in [1] (Conc. 10 (µM per method)) is on record as 62,0205%. For the same compound, the “Cell viability percentage, A549” value in data set [1] (Conc. 25 (µM per method)) was 43,4807%. In addition, in [1] (Conc. 50 (µM per method)), the “Cell viability percentage, A549” value is given as 30,3521%. The IC50 in data set [1] was determined as 17.22 ± 0.07 µM. This compound had an IC50 in data set [2] of 6.84 ± 0.009 µM. For the same compound, the “Cell viability percentage, MCF-7” value in data set [3] (Conc. 1 (µM per method)) was 34,8969%. The “Cell viability percentage, MCF-7” value in [3] (Conc. 5 (µM per method)) is 33,2335%. Besides, the “Cell viability percentage, MCF-7” value in [3] (Conc. 10 (µM per method)) is given as 31,9528%. Moreover, in data set [3] (Conc. 25 (µM per method)), the “Cell viability percentage, MCF-7” value is on record as 31,7365%. The “Cell viability percentage, MCF-7” value in [3] (Conc. 50 (µM per method)) is 30,1896%. Besides, the IC50 in data set [3] is 14.79 ± 0.1 µM. On human α-amylase, this compound returned an IC50 of 4.71 ± 0.01 µM. In data set [4], this compound had an IC50 of 43.23 ± 0.05 µM. Moreover, the half-maximal inhibitory concentration (IC50) in [5] amounted to 6.2 ± 0.12 µM. The same compound had an IC50 in [6] of 0.88 ± 0.004 µM. In data set [7], the IC50 turned out to be 32.42 ± 0.06 µM. For the same compound, in data set [8], the viability at 1 µM stood at 75.1%, the viability at 5 µM was 70.1%, the viability at 10 µM was found to be 54.1% and the viability at 25 µM came to 39.6%. The compound further gave a viability at 50 µM in data set [8] of 20.5%. For the same compound, in data set [9], the IC50 was found to be 3.5 ± 0.01 µM.
Compound `COc1ccc(C2Nc3c(Br)cc(I)cc3C(C)=[N+]2[O-])cc1` (centres unmarked) [Compound 3p] had a melting point of 173 to 174 °C. Besides, the “Cell viability percentage, A549” value in data set [1] (Conc. 1 (µM per method)) is on record as 45,0433%. Further, in [1] (Conc. 5 (µM per method)), the “Cell viability percentage, A549” value was 44,7771%. For the same compound, in data set [1] (Conc. 10 (µM per method)), the “Cell viability percentage, A549” value was 43,6627%. Also, the “Cell viability percentage, A549” value in [1] (Conc. 25 (µM per method)) is 42,5649%. In addition, in data set [1] (Conc. 50 (µM per method)), the “Cell viability percentage, A549” value is 39,3879%. Further, the IC50 in data set [1] was 12.24 ± 0.02 µM. The compound further yielded a 50% inhibitory concentration (IC50) in data set [2] of 60.03 ± 0.014 µM. In [3] (Conc. 1 (µM per method)), the “Cell viability percentage, MCF-7” value is given as 72,4624%. The “Cell viability percentage, MCF-7” value in data set [3] (Conc. 5 (µM per method)) is listed as 70,8112%. In addition, in data set [3] (Conc. 10 (µM per method)), the “Cell viability percentage, MCF-7” value is given as 59,2339%. Also, the “Cell viability percentage, MCF-7” value in data set [3] (Conc. 25 (µM per method)) is on record as 43,212%. In addition, the “Cell viability percentage, MCF-7” value in [3] (Conc. 50 (µM per method)) is 27,8817%. Besides, the IC50 in data set [3] is 13.47 ± 0.06 µM. The compound further registered an IC50 on human α-amylase of 73.66 ± 0.02 µM. Moreover, inhibition in data set [4] was half-maximal at 0.78 ± 0.05 µM (IC50). The IC50 in [5] stood at 8.3 ± 0.04 µM. The compound further showed an IC50 in data set [6] of 5.46 ± 0.004 µM. In addition, the IC50 in [7] turned out to be 59.02 ± 0.02 µM. In data set [8], the viability at 1 µM came out at 83.4%, the viability at 5 µM came out at 81.4%, the viability at 10 µM was found to be 75.8% and the viability at 25 µM is 74.7%. For the same compound, the viability at 50 µM in [8] was found to be 18.4%. Moreover, half-maximal inhibition in data set [9] (IC50) was put at 15.51 ± 0.009 µM.
Take `c1ccc2c(c1)[I+]c1ccccc1-2` [DPI, diphenyleneiodonium chloride, reference compound]: the IC50 was determined as 0.71 ± 0.03 µM in [5] and 3 ± 0.007 µM in [11]. In addition, the “NOS activity after incubation with inhibitor” value in [10] is given as “irreversibly inhibited”.
